According to patent US7196057B2, “Fusion proteins for insect control” (University of Durham, priority 2001, dated 2007):
“Also recorded” adds a separate entry of the source.

Tests used:
[1] = tested on: Vth stadium L. oleracea larvae; test: Insect bioassay 1: artificial diet feeding, 24 h; format: in vivo, Lacanobia oleracea; settings: 1.5% of dietary protein (1.5 mg/5 g diet), 24 h exposure, n=7
Protocol: (§1) A potato leaf based artificial diet (24) was used to assay recombinant proteins against newly moulted Vth stadium L. oleracea which were starved for 24 h prior to exposure to diets. To encourage feeding, sucrose was incorporated at 0.05% (w/w) in assays 2 A and B and at 0.5% (w/w) in assay 3. Individual larvae were maintained in clear plastic pots containing moist filter paper to prevent diet desiccation. Larval wet weights (−/+0.1 mg) were recorded before, during, and after exposure to treatments, and diet consumption was estimated on a wet weight basis. The amounts of recombinant proteins added to diets were based on activity values derived from agglutination assays. Larvae (n=7 per treatment) were exposed to control diet; control diet containing ammonia (0.0002 v/w); diet containing recombinant GNA at a concentration of approx. 1.5% (w/w) of dietary protein (1.5 mg/5 g diet wet weight) and diet containing recombinant FP at a concentration of approx. 1.5% (w/w) of dietary protein for 24 h.

[2] = tested on: Vth instar L. oleracea larvae; test: Insect bioassay 2A: artificial diet feeding, 3 days; format: in vivo, Lacanobia oleracea; settings: 0.5% of dietary protein (0.5 mg/5 g diet), 3 days exposure, n=8
Protocol: as §1, with “assays.” for “assays. Larvae (n=7 per treatment) were exposed to control diet; control diet containing ammonia (0.0002 v/w); diet containing recombinant GNA at a concentration of approx. 1.5% (w/w) of dietary protein (1.5 mg/5 g diet wet weight) and diet containing recombinant FP at a concentration of approx. 1.5% (w/w) of dietary protein for 24 h.”
Larvae (n=8 per treatment) were exposed for 3 days to control diet; control diet containing ammonia; diet containing native GNA at approx. 0.5% (w/w) of dietary protein: diet containing native GNA and synthetic Manse-AS at a total concentration of approx. 0.5% (w/w) (i.e. ratio of GNA: Manse-AS equivalent to FP and diet containing FP at approx. 0.5% (w/w) of dietary protein.

| Substance | mean increase/decrease in weight of larvae [1] | increase/decrease in mean wet weight of larvae [2] |
| --- | --- | --- |
| GNA: Galanthus nivalis agglutinin (snowdrop lectin); standard GNA obtained from Vector Laboratories | more than 50% | four fold increase in weight; also recorded: fourfold increase in weight |
| recombinant GNA: Galanthus nivalis agglutinin (snowdrop lectin), 109 residues, expressed in E. coli with N-terminal His tag, SEQ ID NO: 2 | more than 50% |  |
